According to patent US20260049072A1, “HETEROCYCLIC COMPOUND FOR INDUCING DEGRADATION OF MUTANT KRAS PROTEIN” (Astellas Pharma Inc., priority 2022, published 2026):

Columns and labels:
RAS G12V = biological target: T1, RAS G12V (Homo sapiens, UniProt P01116, G12V); test: RAS G12V degradation activity, Cell ELISA, PA-TU-8902; assay type: cell-based; conditions: PA-TU-8902 cells, 24 hours; for DC50: 100% = Example compound 17 at 1 μM, read-out: DC50 (RAS G12V 50% degradation value)
T1 construct: host or cells: PA-TU-8902 human pancreatic cancer cells
Protocol: Test Example 1-1: Evaluation of RAS G12V Degradation Activity on Human KRAS G12V Mutant-Positive Pancreatic Cancer Line PA-TU-8902
The RAS G12V degradation activities of subject compounds were evaluated by measuring the expression levels of RAS G12V by a Cell ELISA method.
PA-TU-8902 cells (DSMZ, ACC 179) were seeded at 36 μL per well on a 384-well plate (from Greiner bio-one) to give 1.5×10^4 cells per well. As for the cell culture conditions, DMEM medium (from Sigma-Aldrich) containing 10% fetal bovine serum (from Cytiva) was used in the presence of 5% CO2 at 37° C.
(§1) The next day, the subject compounds (10 points having final concentrations in the range of 3 μM to 0.1 nM), Example compound 17 of a final concentration of 1 μM as a positive control and dimethyl sulfoxide (DMSO), which was the solvent for the subject compounds, as a negative control were diluted 100-fold with a fresh medium and were each added at 4 μL per well, followed by culturing for 24 hours.
The next day, the culture supernatant was removed, and a 4% paraformaldehyde phosphate buffer solution (from FUJIFILM Wako) was added at 20 μL per well. The plate was allowed to stand for 30 minutes at room temperature to thus immobilize the cells. Then, the supernatant was removed, and 0.1% Triton X-100 (from Amersham Biosciences)-containing Phosphate buffered saline (PBS) was added at 20 μL per well. After allowing the plate to stand at room temperature for 10 minutes, the supernatant was removed, and the wells were washed twice in total by adding PBS at 25 μL per well and removing the supernatant. The washing operations below were performed in the same manner. Next, the supernatant was removed, and 0.5% sodium dodecyl sulfate (SDS; from ThermoFisher Scientific)-containing PBS was added at 20 μL per well. After allowing the plate to stand at room temperature for 10 minutes, the plate was centrifuged to remove the supernatant. After washing with PBS, the supernatant was removed by centrifugation, and a blocking solution (PVDF Blocking Reagent for Can Get Signal; from TOYOBO) was added at 20 μL per well. After allowing the plate to stand for 30 minutes at room temperature, the supernatant was removed by centrifugation, and a solution obtained by diluting an anti-Ras (G12V Mutant Specific) antibody (Ras (G12V Mutant Specific) (D2H12) Rabbit mAb; from Cell Signaling Technology; 500-fold dilution) and an anti-3-actin antibody (Anti-beta Actin antibody; from Abcam; 5,000-fold dilution) with Can Get Signal Solution 2 (from TOYOBO) was added at 15 μL per well as primary antibodies. The plate was allowed to stand overnight at 4° C.
(§2) The next day, the supernatant was removed by centrifugation, and the plate was washed with PBS. The supernatant was removed by centrifugation, and a solution obtained by diluting an anti-rabbit IgG antibody (IRDye 800CW Goat anti-Rabbit IgG; from LI-COR Biosciences) and an anti-mouse IgG antibody (IRDye 680RD Donkey anti-Mouse IgG; from LI-COR Biosciences) 1,000-fold with Can Get Signal Solution 2 was added at 15 μL per well as secondary antibodies. After allowing the plate to stand at room temperature for an hour, the supernatant was removed by centrifugation, and the plate was washed with PBS. After removing the supernatant, the plate was dried as it was with air at room temperature for two hours or more, and the 700-nm and 800-nm fluorescent signals were measured with Aerius (from LI-COR Biosciences).
With the RAS G12V signaling value at the time of addition of DMSO corrected with the signaling value of 3-actin taken as 0% and with the RAS G12V signaling value at the time of addition of Example compound 17 of a final concentration of 1 μM taken as 100%, the RAS G12V degradation rates were calculated. The 50% degradation values (DC50) were calculated by Sigmoid-Emax model nonlinear regression analysis.

RAS G12D = biological target: T2, RAS G12D (Homo sapiens, UniProt P01116, G12D); test: RAS G12D degradation activity, Cell ELISA, AsPC-1; assay type: cell-based; conditions: AsPC-1 cells, 24 hours; read-out: DC50 (RAS G12D 50% degradation value)
T2 construct: host or cells: AsPC-1 human pancreatic cancer cells
Protocol: Test Example 1-2: Evaluation of RAS G12D Degradation Activity on Human KRAS G12D Mutant-Positive Pancreatic Cancer Line AsPC-1
The RAS G12D degradation activities of subject compounds were evaluated in the same manner as in Test Example 1-1 by measuring the expression levels of RAS G12D by a Cell ELISA method.
AsPC-1 cells (ATCC, CRL-1682) were seeded at 36 μL per well on a 384-well plate to give 2.0×10^4 cells per well. As for the cell culture conditions, RPMI-1640 medium (from Sigma-Aldrich) containing 10% fetal bovine serum was used in the presence of 5% CO2 at 37° C.
as §1, with “nM)” for “nM), Example compound 17 of a final concentration of 1 μM as a positive control”, “DMSO,” for “dimethyl sulfoxide (DMSO),”
The next day, the procedures from the immobilization of the cells to before the addition of the blocking solution were performed by the same methods as in Test Example 1-1. A blocking solution (Intercept Blocking Buffer; from LI-COR Biosciences) was added at 20 μL per well. After allowing the plate to stand for 30 minutes at room temperature, the supernatant was removed by centrifugation. A solution obtained by diluting an anti-R-actin antibody (1,000-fold dilution) with the blocking solution was added to the wells of the positive control as a primary antibody, and a solution obtained by diluting an anti-Ras (G12D Mutant Specific) antibody (Ras (G12D Mutant Specific) (D8H7) Rabbit mAb; from Cell Signaling Technology; 1,000-fold dilution) and an anti-3-actin antibody (1,000-fold dilution) with the blocking solution was added to the other wells as primary antibodies, each at 15 μL per well. The plate was allowed to stand overnight at 4° C.
as §2, with “antibody” for “antibody (IRDye 800CW Goat anti-Rabbit IgG; from LI-COR Biosciences)”, “antibody” for “antibody (IRDye 680RD Donkey anti-Mouse IgG; from LI-COR Biosciences)”, “the blocking solution” for “Can Get Signal Solution 2”, “Aerius.” for “Aerius (from LI-COR Biosciences).”
With the RAS G12D signaling value at the time of addition of DMSO corrected with the signaling value of β-actin taken as 0% and with the RAS G12D signaling value under the conditions of staining with the anti-β-actin antibody alone taken as 100%, the RAS G12D degradation rates were calculated. The 50% degradation values (DC50) were calculated by Sigmoid-Emax model nonlinear regression analysis.

T1 sequence (P01116 1-188 isoform P01116-2 G12V): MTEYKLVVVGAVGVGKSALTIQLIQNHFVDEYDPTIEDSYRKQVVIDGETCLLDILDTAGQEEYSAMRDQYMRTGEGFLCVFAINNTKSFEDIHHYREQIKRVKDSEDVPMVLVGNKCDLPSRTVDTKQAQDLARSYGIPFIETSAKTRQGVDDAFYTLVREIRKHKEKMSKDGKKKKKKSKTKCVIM
T2 sequence (P01116 1-188 isoform P01116-2 G12D): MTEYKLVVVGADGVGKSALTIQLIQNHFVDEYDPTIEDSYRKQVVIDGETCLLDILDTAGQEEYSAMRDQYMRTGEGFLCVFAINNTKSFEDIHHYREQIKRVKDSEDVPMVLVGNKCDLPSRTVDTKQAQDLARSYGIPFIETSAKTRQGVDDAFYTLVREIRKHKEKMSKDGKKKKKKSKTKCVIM

Structure (SMILES)	DC50 (RAS G12V)	DC50 (RAS G12D)	Dmax (RAS G12V; PaTu 8902, RAS G12V, read-out: Dmax (degradation rate at the concentration with highest degradation activity))
COC(C)(C)COc1cc(OC2CN(C(=O)N3CC(CN(C)C)C3)C2)c2cc(C3CC3)c(-c3c(C)c(F)cc4[nH]ncc34)c(OCc3ccc(-c4cn([C@H](C(=O)N5C[C@H](O)C[C@H]5C(=O)N[C@@H](CO)c5ccc(-n6cncn6)cc5)C(C)C)nn4)cc3)c2n1 (atropisomer, axis not shown) [Example 9]	21 nM	5 nM	–
CNCCNC(=O)N1CC(Oc2nc(OC[C@H](C)OC)nc3c(OCc4ccc(-c5cn([C@H](C(=O)N6C[C@H](O)C[C@H]6C(=O)N[C@@H](CO)c6ccc(-c7scnc7C)cc6)C(C)C)nn5)cc4)c(-c4c(C)c(F)cc5[nH]ncc45)c(C4CC4)cc23)C1 (atropisomer, axis not shown) [Example 18]	69 nM	26 nM	–
CO[C@@H](C)COc1nc(N2CC(C#N)C2)c2cc(C3CC3)c(-c3c(C)c(F)cc4[nH]ncc34)c(OCc3ccc(-c4cn([C@H](C(=O)N5C[C@H](O)C[C@H]5C(=O)N[C@@H](CO)c5ccc(-c6scnc6C)cc5)C(C)C)nn4)cc3)c2n1 (atropisomer, axis not shown) [Example 20]	48 nM	16 nM	–
CO[C@@H](C)COc1nc(N[C@H]2C[C@H](OCCN(C)C)C2)c2cc(C3CC3)c(-c3c(C)c(F)cc4[nH]ncc34)c(OCc3ccc(-c4cn([C@H](C(=O)N5C[C@H](O)C[C@H]5C(=O)N[C@@H](CO)c5ccc(-c6scnc6C)cc5)C(C)C)nn4)cc3)c2n1 (atropisomer, axis not shown) [Example 23]	112 nM	1 nM	62%
CO[C@@H](C)COc1nc(NC2CN(C(=O)N3CC(CN(C)C)C3)C2)c2cc(C3CC3)c(-c3c(C)c(F)cc4[nH]ncc34)c(OCc3ccc(-c4cn([C@H](C(=O)N5C[C@H](O)C[C@H]5C(=O)N[C@@H](CO)c5ccc(-c6scnc6C)cc5)C(C)C)nn4)cc3)c2n1 (atropisomer, axis not shown) [Example 25]	14 nM	3 nM	–
CO[C@@H](C)COc1nc(NC2CN(C(=S)N3CC(CN(C)C)C3)C2)c2cc(C3CC3)c(-c3c(C)c(F)cc4[nH]ncc34)c(OCc3ccc(-c4cn([C@H](C(=O)N5C[C@H](O)C[C@H]5C(=O)N[C@@H](CO)c5ccc(-n6cncn6)cc5)C(C)C)nn4)cc3)c2n1 (atropisomer, axis not shown) [Example 26]	19 nM	6 nM	–
CO[C@@H](C)COc1cc(OC2CN(C(=O)C3CN(C)C3)C2)c2cc(C3CC3)c(-c3c(C)c(F)cc4[nH]ncc34)c(OCc3ccc(-c4cn([C@H](C(=O)N5C[C@H](O)C[C@H]5C(=O)N[C@@H](CO)c5ccc(-n6cncn6)cc5)C(C)C)nn4)cc3)c2n1 (atropisomer, axis not shown) [Example 42]	30 nM	6 nM	–
CO[C@@H](C)COc1nc(NC2CN(C(=O)O[C@H]3C[C@@H](N(C)C)C3)C2)c2cc(C3CC3)c(-c3c(C)c(F)cc4[nH]ncc34)c(OCc3ccc(-c4cn([C@H](C(=O)N5C[C@H](O)C[C@H]5C(=O)N[C@@H](CO)c5ccc(-c6ocnc6C)cc5)C(C)C)nn4)cc3)c2n1 (atropisomer, axis not shown; (M)) [Example 1, (1s,3R)-3-(dimethylamino)cyclobutyl 3-({(7M)-6-cyclopropyl-7-(6-fluoro-5-methyl-1H-indazol-4-yl)-8-{[4-(1-{(2S)-1-[(2S,4R)-4-hydroxy-2-({(1R)-2-hydroxy-1-[4-(4-methyl-1,3-oxazol-5-yl)phenyl]ethyl}carbamoyl)pyrrolidin-1-yl]-3-methyl-1-oxobutan-2-yl}-1H-1,2,3-triazol-4-yl)phenyl]methoxy}-2-[(2S)-2-methoxypropoxy]quinazolin-4-yl}amino)azetidine-1-carboxylate]	31 nM	5 nM	–

Continued by falling DC50 (RAS G12V), values first:

DC50 (RAS G12V)	DC50 (RAS G12D)	Dmax (RAS G12V; PaTu 8902, RAS G12V, read-out: Dmax (degradation rate at the concentration with highest degradation activity))	Structure (SMILES)
45 nM	20 nM	–	CO[C@@H](C)COc1nc(NC2CN(C(=O)O[C@H]3C[C@@H](N(C)C)C3)C2)c2cc(C3CC3)c(-c3c(C)c(F)cc4[nH]ncc34)c(OCc3ccc(-c4cn([C@H](C(=O)N5C[C@H](O)C[C@H]5C(=O)N[C@@H](CO)c5ccc(N6CCOC6=O)cc5)C(C)C)nn4)cc3)c2n1 (atropisomer, axis not shown) [Example 4]
41 nM	11 nM	–	CO[C@@H](C)COc1nc(OC2CN(C(=O)NCCN(C)C)C2)c2cc(C3CC3)c(-c3c(C)c(F)cc4[nH]ncc34)c(OCc3ccc(-c4cn([C@H](C(=O)N5C[C@H](O)C[C@H]5C(=O)N[C@@H](CO)c5ccc(-c6scnc6C)cc5)C(C)C)nn4)cc3)c2n1 (atropisomer, axis not shown) [Example 17]
35 nM	8 nM	–	CO[C@@H](C)COc1nc(N2CCOCC2)c2cc(C3CC3)c(-c3c(C)c(F)cc4[nH]ncc34)c(OCc3ccc(-c4cn([C@H](C(=O)N5C[C@H](O)C[C@H]5C(=O)N[C@@H](CO)c5ccc(-c6scnc6C)cc5)C(C)C)nn4)cc3)c2n1 (atropisomer, axis not shown) [Example 21]
26 nM	4 nM	–	CO[C@@H](C)COc1nc(N(C)[C@H]2CCN(C(=O)NCCN(C)C)C2)c2cc(C3CC3)c(-c3c(C)c(F)cc4[nH]ncc34)c(OCc3ccc(-c4cn([C@H](C(=O)N5C[C@H](O)C[C@H]5C(=O)N[C@@H](CO)c5ccc(-c6scnc6C)cc5)C(C)C)nn4)cc3)c2n1 (atropisomer, axis not shown) [Example 19]
